The values that follow come from US20140276107A1, “PHOTODYNAMIC DIAGNOSIS” (Photocure ASA, priority 2011, published 2014).

Test [1] deals with dysplastic tissue in Barrett's esophagus. Particulars: cited from earlier work.
In test [2] the test system is normal and Barrett's tissue of the esophagus. Nature of the test: Spectrofluorimetry (LIFS) of PpIX fluorescence intensity in the esophagus of patients suffering from Barrett's esophagus. Format: in vivo, human. Particulars: for porphyrin (PpIX) fluorescence in normal tissue compared to Barrett's tissue: ALA 20 mg/kg orally 4-5 hours before endoscopy (5 subjects), HAL 8 mM solution by local instillation 2 hours before endoscopy (3 subjects). The protocol: Spectrofluorimetry (LIFS) measurements (fluorescence intensity of PpIX in the esophagus) were carried out on 8 patients suffering from Barrett's esophagus. The measurements were carried out after oral administration of 5-ALA (ALA) or local instillation of 5-ALA hexyl ester (HAL) and the fluorescence intensity of normal and Barrett's tissue was compared.
LIFS was carried out using the Karl Storz D-light system. Abnormal cells could be clearly delineated against normal tissue due to the porphyrin fluorescence resulting from an accumulation of the ALA or HAL in the abnormal tissue. For this purpose, blue light of a specific spectral composition was introduced into the body via an endoscopic light guide system. • Patient group 1: 5 subjects each received 20 mg/kg body weight ALA orally, 4-5 hours before endoscopy. • Patient group 2: 3 subjects each received a 8 mM solution of HAL in an aqueous buffer by local instillation (100 mg in 50 mL, i.e. 0.2%), 2 hours before endoscopy.

With `NCC(=O)CCC(=O)O` [ALA, 5-aminolevulinic acid], the “distinction of high-grade dysplastic from non-dysplastic epithelial tissue” value in test [1] (Brand et al. 2002) was “can distinguish”. In test [1] (Stepinac et al. 2003), the “detection of high-grade intraepithelial neoplasia and adenocarcinoma” value is “effective”; the “detection of low-grade neoplastic tissue” value is on record as “not accurate”. In addition, the “specificity for detection of dysplastic tissue” value in test [1] (systemic application of 5-ALA at 20 mg/kg and 30 mg/kg, high rate of false positive fluorescence) is listed as “poor”. Besides, the “porphyrin (PpIX) fluorescence in normal tissue compared to Barrett's tissue” value in test [2] (FIG. 1) is on record as “significantly higher in normal tissue compared to Barrett's tissue”.
On to `CCCCCCOC(=O)CCC(=O)CN` [HAL, 5-ALA hexyl ester], for which the “porphyrin (PpIX) fluorescence in normal tissue compared to Barrett's tissue” value in test [2] (FIG. 1) is on record as “significantly higher in normal tissue compared to Barrett's tissue”. Further, the “intensity of fluorescence in the normal epithelium, HAL versus ALA” value in test [2] (FIG. 1, normal epithelium, HAL 8 mM local instillation vs ALA 20 mg/kg orally) is “lower”. In addition, in test [2] (FIG. 2, one of the patients receiving HAL), the “fluorescence intensity of PpIX in the Barrett and normal mucosa” value is on record as “stronger intensity for the normal mucosa”. The “intensity of fluorescence in the normal and Barrett epithelium, HAL compared to ALA” value in test [2] (normal and Barrett epithelium, background fluorescence) is given as “lower intensity of fluorescence”.
